According to patent EP0171362A1, “Aminoalkyl penem compounds” (priority 1984, dated 1986):
Converted amounts (≈) assume the structure as drawn.

Columns and labels:
Assay type in all cases: cell-based
[1] = tested on: Neisseria meningitidis 1316; test: In vitro antibiotic activity (MIC)
[2] = tested on: Pseudomonas aeruginosa K 799/61; test: In vitro antibiotic activity (MIC); conditions: K799/61, read-out: in vitro MIC
[3] = tested on: Haemophilus influenzae 24; test: In vitro antibiotic activity (MIC)
[4] = tested on: Neisseria gonorrhoeae 1317/4; test: In vitro antibiotic activity (MIC)
Escherichia coli 205 = test: In vitro antibiotic activity (MIC)
Serratia marcescens 344 = test: In vitro antibiotic activity (MIC)
Proteus mirabilis 774 = test: In vitro antibiotic activity (MIC)
Escherichia coli UB 1005 = test: In vitro antibiotic activity (MIC); conditions: UB1005
Source text: Ueberraschenderweise weisen die erfindungsgemässen Penem-Verbindungen gegenüber strukturverwandten und vorbekannten Penemen eine überlegene Wirksamkeit auf. Dies wird deutlich beim Vergleich der MIC-Daten (minimum inhibitory concentrations, in vitro gemessen) von (5R,6S)-2-[(2R,S)-2-Amino-but-1-yl)-6-[(lR)-1-hydroxyäthyl]-2-penem-3-carbonsäure (Verbindung A) mit bekannten homologen Penemen, die in Position 2 des Penem-Ringes einen 4-Aminobutyl- bzw. 1-Aminobutyl-Substituenten tragen, nämlich (5R,6S)-2-(4-Aminobutyl)-6-hydroxymethyl-2-penem-3-carbonsäure (Europäische Patentanmeldung Nr. 82113, Verbindung B) und (5R,6S)-2-(1-Aminobutyl)-6-hydroxymethyl-2-penem-3-carbonsäure (Europäische Patentanmeldung Nr. 125 208, Verbindung C). Die Ergebnisse sind in der folgenden Tabelle 1 zusammengefasst.

Escherichia coli DC 2 = test: In vitro antibiotic activity (MIC); conditions: DC2
[5] = tested on: Staphylococcus aureus Wood 46; test: In vitro antibiotic activity (MIC); conditions: WOOD46
[6] = tested on: Clostridium perfringens 194 AN; test: microbe, parasite or virus in culture; conditions: read-out: in vitro MIC
[7] = tested on: Staphylococcus aureus 10 B; test: In vitro antibiotic activity (MIC)
Escherichia coli 2018 = test: In vitro antibiotic activity (MIC)
Escherichia coli B-1385 = test: In vitro antibiotic activity (MIC); conditions: B1385
[8] = tested on: Enterobacter cloacae P 99; test: In vitro antibiotic activity (MIC); conditions: P99, read-out: in vitro MIC
[9] = tested on: Staphylococcus aureus 2999i+p+; test: In vitro antibiotic activity (MIC)
Proteus morganii 2359 = test: In vitro antibiotic activity (MIC); conditions: Morganella morganii
Escherichia coli 16 = test: In vitro antibiotic activity (MIC)
[10] = tested on: Streptococcus pneumoniae III/84; test: In vitro antibiotic activity (MIC)
[11] = tested on: Klebsiella pneumoniae 327; test: In vitro antibiotic activity (MIC)
[12] = tested on: Pseudomonas aeruginosa ATCC 12055; test: In vitro antibiotic activity (MIC); conditions: ATCC12055
[13] = tested on: Escherichia coli 205 R + TEM; test: In vitro antibiotic activity (MIC); conditions: read-out: in vitro MIC
[14] = tested on: Staphylococcus aureus A 124; test: In vitro antibiotic activity (MIC); conditions: A124
[15] = tested on: Enterobacter cloacae ATCC 13074; test: In vitro antibiotic activity (MIC); conditions: ATCC13074
[16] = tested on: Streptococcus pyogenes Aronson 1129; test: In vitro antibiotic activity (MIC); conditions: ARONSON1129
[17] = tested on: Pseudomonas aeruginosa 143738R; test: In vitro antibiotic activity (MIC)
[18] = tested on: Bacteroides fragilis L 01; test: In vitro antibiotic activity (MIC); conditions: L01

CCC(N)CC1=C(C(=O)O)N2C(=O)[C@H]([C@@H](C)O)[C@H]2S1 (stereo partly drawn) [Verbindung A, (5R,6S)-2-[(2R,S)-2-Amino-but-1-yl)-6-[(lR)-1-hydroxyäthyl]-2-penem-3-carbonsäure]
MIC [1]: 1 µg/mL (≈ 3.49 µM) | MIC [2]: 4 µg/mL (≈ 14 µM) | MIC [3]: 16 µg/mL (≈ 55.9 µM) | MIC [4]: 0.5 µg/mL (≈ 1.75 µM) | MIC (Escherichia coli 205): 1 µg/mL (≈ 3.49 µM) | MIC (Serratia marcescens 344): 8 µg/mL (≈ 27.9 µM) | MIC (Proteus mirabilis 774): 2 µg/mL (≈ 6.98 µM) | MIC (Escherichia coli UB 1005): 2 µg/mL (≈ 6.98 µM) | MIC (Escherichia coli DC 2): 16 µg/mL (≈ 55.9 µM) | MIC [5]: 0.02 µg/mL (≈ 0.0698 µM) | MIC [6]: 0.2 µg/mL (≈ 0.698 µM) | MIC [7]: 0.02 µg/mL (≈ 0.0698 µM) | MIC (Escherichia coli 2018): 0.5 µg/mL (≈ 1.75 µM) | MIC (Escherichia coli B-1385): 1 µg/mL (≈ 3.49 µM) | MIC [8]: 0.5 µg/mL (≈ 1.75 µM) | MIC [9]: 0.05 µg/mL (≈ 0.175 µM) | MIC (Proteus morganii 2359): 8 µg/mL (≈ 27.9 µM) | MIC (Escherichia coli 16): 1 µg/mL (≈ 3.49 µM) | MIC [10]: 0.05 µg/mL (≈ 0.175 µM) | MIC [11]: 1 µg/mL (≈ 3.49 µM) | MIC [12]: 32 µg/mL (≈ 112 µM) | MIC [13]: 2 µg/mL (≈ 6.98 µM) | MIC [14]: 0.1 µg/mL (≈ 0.349 µM) | MIC [15]: 2 µg/mL (≈ 6.98 µM) | MIC [16]: 0.05 µg/mL (≈ 0.175 µM) | MIC [17]: 64 µg/mL (≈ 224 µM) | MIC [18]: 0.5 µg/mL (≈ 1.75 µM)

NCCCCC1=C(C(=O)O)N2C(=O)[C@H](CO)[C@H]2S1 [Verbindung B, (5R,6S)-2-(4-Aminobutyl)-6-hydroxymethyl-2-penem-3-carbonsäure]
MIC [2]: 4 µg/mL (≈ 14.7 µM) | MIC (Escherichia coli 205): 4 µg/mL (≈ 14.7 µM) | MIC (Serratia marcescens 344): 16 µg/mL (≈ 58.8 µM) | MIC (Proteus mirabilis 774): 16 µg/mL (≈ 58.8 µM) | MIC (Escherichia coli UB 1005): 4 µg/mL (≈ 14.7 µM) | MIC (Escherichia coli DC 2): 8 µg/mL (≈ 29.4 µM) | MIC [6]: 4 µg/mL (≈ 14.7 µM) | MIC [7]: 0.5 µg/mL (≈ 1.84 µM) | MIC [8]: 4 µg/mL (≈ 14.7 µM) | MIC [9]: 0.5 µg/mL (≈ 1.84 µM) | MIC (Proteus morganii 2359): 16 µg/mL (≈ 58.8 µM) | MIC (Escherichia coli 16): 4 µg/mL (≈ 14.7 µM) | MIC [10]: 0.5 µg/mL (≈ 1.84 µM) | MIC [11]: 4 µg/mL (≈ 14.7 µM) | MIC [12]: 8 µg/mL (≈ 29.4 µM) | MIC [13]: 8 µg/mL (≈ 29.4 µM) | MIC [15]: 16 µg/mL (≈ 58.8 µM) | MIC [16]: 0.5 µg/mL (≈ 1.84 µM) | MIC [18]: 0.5 µg/mL (≈ 1.84 µM)

CCCC(N)C1=C(C(=O)O)N2C(=O)[C@H](CO)[C@H]2S1 (stereo partly drawn) [Verbindung C, (5R,6S)-2-(1-Aminobutyl)-6-hydroxymethyl-2-penem-3-carbonsäure]
MIC [1]: 1 µg/mL (≈ 3.67 µM) | MIC [2]: 64 µg/mL (≈ 235 µM) | MIC [3]: 32 µg/mL (≈ 118 µM) | MIC [4]: 2 µg/mL (≈ 7.34 µM) | MIC (Escherichia coli 205): 64 µg/mL (≈ 235 µM) | MIC (Serratia marcescens 344): > 64 µg/mL | MIC (Proteus mirabilis 774): > 64 µg/mL | MIC (Escherichia coli UB 1005): 64 µg/mL (≈ 235 µM) | MIC (Escherichia coli DC 2): 64 µg/mL (≈ 235 µM) | MIC [5]: 0.05 µg/mL (≈ 0.184 µM) | MIC [6]: 64 µg/mL (≈ 235 µM) | MIC [7]: 0.05 µg/mL (≈ 0.184 µM) | MIC (Escherichia coli 2018): 32 µg/mL (≈ 118 µM) | MIC (Escherichia coli B-1385): 64 µg/mL (≈ 235 µM) | MIC [8]: 64 µg/mL (≈ 235 µM) | MIC [9]: 0.05 µg/mL (≈ 0.184 µM) | MIC (Proteus morganii 2359): > 64 µg/mL | MIC (Escherichia coli 16): 64 µg/mL (≈ 235 µM) | MIC [10]: 0.05 µg/mL (≈ 0.184 µM) | MIC [11]: 32 µg/mL (≈ 118 µM) | MIC [12]: > 64 µg/mL | MIC [13]: 64 µg/mL (≈ 235 µM) | MIC [14]: 0.5 µg/mL (≈ 1.84 µM) | MIC [15]: > 64 µg/mL | MIC [16]: 1 µg/mL (≈ 3.67 µM) | MIC [17]: > 64 µg/mL | MIC [18]: 16 µg/mL (≈ 58.8 µM)
